Positions of bridges follow the written chain, without caps; N, C: chain ends. No end group written: not given here.
Legend:
[1] = system: osteoclasts; test: Osteoclast Pitting Assay; assay type: cell-based; details: neonatal rat osteoclasts on bovine cortical bone slices
Description: The assay is conduct ed as described in Murrills and Dempster (1990) Bone 11:333-344. Briefly, 4×4×0.2 mm slices of devitalized bovine cortical bone are numbered, placed in the wells of 96-well culture plates and wetted with 100 ul of Medium 199 containing Hanks salts, 10 mM HEPES, pH 7.0 (Medium 199/Hanks). Bone cell suspensions containing osteoclasts are prepared by mincing the long bones of neonatal rats (Sprague-Dawley , 4-6 days old) in Medium 199/Hanks. 100 uL of the suspension are then plated onto each slice and incubated 30 minutes to allow osteoclasts to adhere. The slices are rinsed to remove non-adherent cells and incubated 24 h in Medium 199 containing Earle's salts, 10 mM HEPES and 0.7 g/L NaHCO3, which equilibrates at pH 6.9 in a 5% CO2 atmosphere. At this pH the adherent osteoclasts excavate an adequate number of resorption pits for assay purposes. Slices are fixed in 2.5% glutaraldehyde and osteoclasts counted following tartrate-resistant acid phosphatase staining. […] Resorption pits are quantified by manually counting.
The experiments are conducted according to a block design with osteoclasts from each animal exposed to each treatment. […] Several parameters are recorded on a “per slice” basis: number of pits, number of osteoclasts, number of pits per osteoclast, number of fibroblast-like bone cells. […] IC50s are calculated for active compounds using dose-response curves.

[2] = target: Vitronectin Receptor (αvβ3) (Homo sapiens, UniProt P05106+P06756); test: Vitronectin Receptor (αvβ3) Binding Assay; details: at 100 μM; 125I-Echistatin, 512P5 cell membranes
Chain of Vitronectin Receptor (αvβ3) (P06756 31-889 limits assumed): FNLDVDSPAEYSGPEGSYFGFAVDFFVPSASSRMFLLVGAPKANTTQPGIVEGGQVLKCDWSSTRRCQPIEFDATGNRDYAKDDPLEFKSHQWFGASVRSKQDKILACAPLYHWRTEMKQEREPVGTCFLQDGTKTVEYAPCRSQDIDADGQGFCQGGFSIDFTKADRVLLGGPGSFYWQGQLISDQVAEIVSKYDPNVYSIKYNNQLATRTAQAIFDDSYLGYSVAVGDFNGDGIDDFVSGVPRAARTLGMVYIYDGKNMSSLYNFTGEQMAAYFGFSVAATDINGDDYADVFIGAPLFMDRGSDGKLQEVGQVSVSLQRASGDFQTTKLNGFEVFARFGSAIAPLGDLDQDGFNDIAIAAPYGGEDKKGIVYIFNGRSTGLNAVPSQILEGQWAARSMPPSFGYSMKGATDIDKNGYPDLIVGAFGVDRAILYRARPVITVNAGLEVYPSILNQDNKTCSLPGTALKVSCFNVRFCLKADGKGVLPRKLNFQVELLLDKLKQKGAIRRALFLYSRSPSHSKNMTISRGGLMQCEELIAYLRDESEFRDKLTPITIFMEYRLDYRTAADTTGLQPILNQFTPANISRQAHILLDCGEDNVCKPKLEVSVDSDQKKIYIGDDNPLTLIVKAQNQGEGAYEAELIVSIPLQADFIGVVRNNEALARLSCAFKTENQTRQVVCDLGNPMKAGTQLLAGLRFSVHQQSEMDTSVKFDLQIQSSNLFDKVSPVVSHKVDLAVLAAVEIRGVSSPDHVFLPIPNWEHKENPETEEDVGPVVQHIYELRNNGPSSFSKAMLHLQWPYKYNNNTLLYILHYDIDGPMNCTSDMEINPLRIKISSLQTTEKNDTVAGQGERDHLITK
Chain of Vitronectin Receptor (αvβ3) (P06756 891-1048 limits assumed): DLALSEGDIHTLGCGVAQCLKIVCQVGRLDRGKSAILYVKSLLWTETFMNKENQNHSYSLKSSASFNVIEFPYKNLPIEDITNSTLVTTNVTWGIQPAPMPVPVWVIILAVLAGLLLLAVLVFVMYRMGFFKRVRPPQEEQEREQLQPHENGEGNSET
Chain of Vitronectin Receptor (αvβ3) (P05106 27-788): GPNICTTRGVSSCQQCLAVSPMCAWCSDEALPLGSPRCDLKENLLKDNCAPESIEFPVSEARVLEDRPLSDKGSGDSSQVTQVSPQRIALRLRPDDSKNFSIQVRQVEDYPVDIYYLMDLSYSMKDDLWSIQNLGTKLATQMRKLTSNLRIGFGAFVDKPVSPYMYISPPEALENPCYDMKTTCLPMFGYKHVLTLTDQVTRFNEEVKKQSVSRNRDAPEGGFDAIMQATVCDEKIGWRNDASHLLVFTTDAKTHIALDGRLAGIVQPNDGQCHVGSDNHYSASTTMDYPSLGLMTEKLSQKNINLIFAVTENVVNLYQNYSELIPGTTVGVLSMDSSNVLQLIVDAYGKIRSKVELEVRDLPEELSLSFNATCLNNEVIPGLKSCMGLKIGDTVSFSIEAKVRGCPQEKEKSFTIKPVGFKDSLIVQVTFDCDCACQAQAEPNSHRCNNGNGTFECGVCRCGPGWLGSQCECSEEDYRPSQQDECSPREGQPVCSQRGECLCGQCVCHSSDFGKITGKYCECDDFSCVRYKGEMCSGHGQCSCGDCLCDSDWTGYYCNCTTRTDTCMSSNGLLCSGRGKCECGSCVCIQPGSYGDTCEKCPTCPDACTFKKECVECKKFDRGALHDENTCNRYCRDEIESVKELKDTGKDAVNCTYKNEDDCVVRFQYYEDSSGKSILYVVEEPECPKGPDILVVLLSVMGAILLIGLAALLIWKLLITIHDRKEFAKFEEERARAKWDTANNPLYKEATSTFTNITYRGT

## Calcitonin: reference compound of the osteoclast pitting assay; used as anti-resorptive in the clinic (CGNLSTCMLGTYTQDLNKFHTFPQTSIGVGAP-NH2; disulfide 1-7; ends not checked; UniProt P01257 85-116, looked up)
[1]
  osteoclast inhibitory activity: significant osteoclast inhibitory activity

## GRGESP: reference peptide, structure given by standard single letter designation for amino acids
[2]
  ability to inhibit avb3 binding: inactive at 100 μM

From patent US6586187B1, “Methods for solid phase combinatorial synthesis of integrin inhibitors” (Wyeth, priority 1999, dated 2003)
